# Data as given in publication PMC5402990 (PLoS Neglected Tropical Diseases, 2017).
# Counter-ions that a name gives are not always drawn. Like-named read-outs stand apart in the source and are kept apart here.
# Tests used:
# [1] = system: EBOV VLP trafficking in BSC-1 cells; format: cell-based, Grivet monkey
# Huh 7 cells = conditions: human
# [2] = system: cholesterol levels in endolysosomes of BSC-1 cells; format: cell-based, Grivet monkey
# [3] = system: endosome acidification in BSC-1 cells; format: cell-based, Grivet monkey
# cathepsin B and L = format: cell-based, Grivet monkey; conditions: pH 5
# in vitro [4] = conditions: African green monkey
# EBOV trVLPs = format: cell-based, Ebola virus
# in vitro [5] = conditions: human
# in vivo = conditions: mouse, ip, 10 mg/kg
# EBOV GP VLPs = format: cell-based, Ebola virus
# [6] = mouse, in vivo
# [7] = human, in vivo; cited from earlier work
# in vitro [8] = conditions: human; remark: listed apart in the source
# MARV = assay: organism not typed; format: cell-based, Marburg virus
# EBOV/Mak = assay: microbe, parasite or virus in culture; format: cell-based, Ebola virus; conditions: for IC50: Zaire ebolavirus
structure (smiles),measurement,setting,value
"COC(=O)Nc1nc2ccc(C(=O)c3cccs3)cc2[nH]1 [nocodazole, Nocodazole]",EBOV VLP trafficking to NPC1+ endolysosomes (Manders colocalization),[1],blocked EBOV VLP trafficking to NPC1^+ endolysosomes to a similar extent as nocodazole
"Cc1cccc(/C=N/Nc2cc(N3CCOCC3)nc(OCCc3ccccn3)n2)c1 [Apilimod, apilimod]",CC50,Huh 7 cells,0.5 ± 0.1 µM
same,cholesterol levels in endolysosomes,[2],did not cause a detectable increase
same,effect on endosome acidification,[3],no detectable effect on endosome acidification
same,effect on the activity of cathepsin B and L,cathepsin B and L,no apparent direct effect
same,CC50,in vitro [4],> 2 µM
same,EBOV particle replication (trVLP infection),EBOV trVLPs,blocked
same,EBOV VLP trafficking to NPC1+ endolysosomes (Manders colocalization),[1],blocked EBOV VLP trafficking to NPC1^+ endolysosomes to a similar extent as nocodazole
same,VLP colocalization with EEA1+ endosomes,[1],caused EBOV VLPs to accumulate in EEA1^+ endosomes
same,VLP colocalization with NPC1 over time course,[1],at no point during this time course were VLPs seen to associate with NPC1^+ endolysosomes
same,CC50,in vitro [5],> 2 µM
same,Cmax,in vivo,2.53 µM
same,EBOV VLP entry,EBOV GP VLPs,blocks EBOV VLP entry into BSC-1 cells with the same approximate dose-dependency as its effects in HEK 293T/17 cells
same,EBOV particle (VLP) entry,EBOV GP VLPs,blocked
same,Cmax relative to IC50 in hMDMs,[6],~ 250 times
same,tolerability in humans,[7],well-tolerated
same,CC50,in vitro [8],0.48 ± 0.08 µM
same,IC50,MARV,0.01 µM
same,fold higher activity than the positive control,MARV,38- to 1160 fold
same,IC50,MARV; 48 h,0.01 ± 0.004 µM
same,IC50,"MARV; Huh-7, 48 h",0.14 ± 0.05 µM
same,IC50,MARV; Vero C1008,0.015 to 0.025 µM
same,IC50,"MARV; Vero C1008, 48 h",0.015 ± 0.003 µM
same,"fold higher activity than the positive control, toremifene citrate",EBOV/Mak,6- to 247 fold
same,fold less potent in Huh 7 cells,EBOV/Mak,~ 10 fold
same,IC50,EBOV/Mak,0.01 µM
same,IC50,EBOV/Mak; 48 h,0.009 ± 0.001 µM
same,IC50,EBOV/Mak; Huh-7,0.14 µM
same,IC50,"EBOV/Mak; Huh-7, 48 h",0.136 ± 0.04 µM
same,IC50,EBOV/Mak; Vero C1008,0.015 to 0.025 µM
same,IC50,"EBOV/Mak; Vero C1008, 48 h",0.025 ± 0.01 µM
CO/C1=C\C(C)=C\[C@@H](C)[C@@H](O)[C@@H](C)C/C(C)=C/C=C/[C@H](OC)[C@@H]([C@@H](C)[C@@H](O)[C@H](C)[C@@]2(O)C[C@@H](O)[C@H](C)[C@@H](C(C)C)O2)OC1=O [Bafilomycin],effect on endosome acidification,[3],blocks endosome acidification
CN(C)CCOc1ccc(/C(=C(/CCCl)c2ccccc2)c2ccccc2)cc1 [Toremifene citrate],IC50,MARV,11.6 µM
same,IC50,MARV; Huh-7,5.38 µM
same,IC50,MARV; Vero C1008,2.36 µM
same,IC50,EBOV/Mak,2.47 µM
same,IC50,EBOV/Mak; Huh-7,0.73 µM
same,IC50,EBOV/Mak; Vero C1008,1.67 µM
